From patent publication US6784191B2, “Benzamidine derivatives” (Ajinomoto Co., Inc., priority 1999, dated 2004)

Columns and labels:
[1] = target: T1, activated human blood coagulation factor X (Homo sapiens, UniProt P00742); assay: Determination of activity of inhibiting the activated blood-coagulation factor X (chromogenic substrate, initial rate); assay type: biochemical; conditions: negative logarithm of concentration inhibiting 50% of initial rate, tris hydrochloride buffer pH 8.4, room temperature; for IC50: read-out: Activity of inhibiting activated blood coagulation factor X (pIC50) (converted)
T1 construct: purchased Enzyme Research Co
T1 sequence (P00742 235-488 limits assumed): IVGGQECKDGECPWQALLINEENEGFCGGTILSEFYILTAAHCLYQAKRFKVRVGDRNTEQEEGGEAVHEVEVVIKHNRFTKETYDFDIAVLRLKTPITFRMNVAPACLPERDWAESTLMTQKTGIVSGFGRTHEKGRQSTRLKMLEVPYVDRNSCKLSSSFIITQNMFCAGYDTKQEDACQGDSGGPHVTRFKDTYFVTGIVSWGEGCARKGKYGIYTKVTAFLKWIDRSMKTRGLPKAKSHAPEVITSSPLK
T1 sequence (P00742 41-179 partner limits assumed): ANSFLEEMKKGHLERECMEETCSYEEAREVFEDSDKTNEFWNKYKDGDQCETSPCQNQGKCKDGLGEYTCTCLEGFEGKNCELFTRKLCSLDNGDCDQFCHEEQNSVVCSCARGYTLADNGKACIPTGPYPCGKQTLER
Procedure: Determination of Activity of Inhibiting the Activated Blood-coagulation Factor X
130 μl of 100 mM tris hydrochloride buffer adjusted to pH 8.4 was added to 10 μl of an aqueous solution of a compound to be tested. Then 10 μl of a 0.5 unit/ml solution of activated human blood coagulation factor X (a product of Enzyme Research Co.) in tris hydrochloride buffer of pH 8.4 was added to the resultant mixture. After the incubation at room temperature for 10 minutes, 50 μl of a solution of N-benzoyl-L-isoleucine-L-glutamine-glycine-L-arginine-P-nitroanilide hydrochloride (a product of Peptide Institute Inc.) adjusted to 0.8 mM with tris hydrochloride (pH 8.4) was added thereto. The absorbance was determined and then the initial reaction rate was determined. A control was prepared in the same manner as that described above except that the solution of the compound to be tested was replaced with 10 μl of tris hydrochloride buffer adjusted to pH 8.4. The absorbance was determined with MICROPLATE READER Model 3550-UV (a product of BIO RAD) at a wave length of 405 nm at intervals of 15 seconds for 16 minutes.

[2] = target: T2, human thrombin (Homo sapiens, UniProt P00734); assay: Determination of thrombin-inhibiting activity (S-2238 chromogenic substrate, initial rate); assay type: biochemical; conditions: negative logarithm of concentration inhibiting 50% of initial rate, tris hydrochloride buffer pH 8.4, room temperature; for IC50: read-out: Thrombin-inhibiting activity (pIC50) (converted)
T2 construct: human thrombin (a product of SIGMA Co.); purchased SIGMA Co
Procedure: Determination of Thrombin-Inhibiting Activity
130 μl of 100 mM tris hydrochloride buffer adjusted to pH 8.4 was added to 10 μl of an aqueous solution of a test compound. Then 10 μl of a solution of human thrombin (a product of SIGMA Co.) adjusted to 2 units/ml with tris hydrochloride buffer of pH 8.4 was added to the resultant mixture. After the incubation at room temperature for 10 minutes, 50 μl of a solution of D-phenylalanine-L-pipecolyl-L-arginine-P-nitroanilide dihydrochloride (S-2238; a product of Daiichi Kagaku Yakuhin Co.) adjusted to 0.4 mM with tris hydrochloride buffer of pH 8.4 was added thereto. The absorbance was determined and then the initial reaction rate was determined. A control was prepared in the same manner as that described above except that the solution of the compound to be tested was replaced with 10 μl of tris hydrochloride buffer adjusted to pH 8.4. The absorbance was determined with MICROPLATE READER Model 3550-UV (a product of […]) at a wave length of 405 nm at intervals of 15 seconds for 16 minutes.

[3] = system: blood plasma (prothrombin time); assay: Determination of blood anticoagulating activity by prothrombin time (PT) method; assay type: biochemical, human; conditions: blood plasma from healthy people, citrate; Sysmex PT II rabbit brain thromboplastin, 37° C.
Procedure: Determination of Blood Anticoagulating Activity
The blood anticoagulating activity was determined by a prothrombin time (PT) determination method. The PT was determined as follows: The blood was taken from healthy people. 3.8% aqueous trisodium citrate solution was added to the blood in a volume ratio of 1:10. The blood plasma was separated by the centrifugation. 5 μl of DMSO solution containing a test compound was added to 45 μl of the blood plasma. After the incubation at room temperature for 2 minutes, a test tube containing the blood plasma solution was placed in Sysmex CA-3000 fully automatic blood coagulation determination device (a product of Toa Medical Electronics Co., Ltd.), and incubated at 37° C. for 3 minutes. 100 μl of Sysmex PT II (rabbit brain tissue thromboplastin, 13.2 mM calcium chloride; a product of Toa Medical Electronics Co., Ltd.) was fed into the test tube. PT was automatically determined with the device. A sample containing 5 μl of DMSO in place of the solution of the test compound was used as the control. The negative logarithm (pPT2) of the concentration of the test compound which elongated PT of the control to the twice as long was determined, and employed as the index of the blood anticoagulating activity.

Row | SMILES | IC50 [1] | IC50 [2] | Thrombin-inhibiting activity (pIC50) [2] | pPT2 (negative logarithm of the concentration which elongated PT of the control to twice as long) [3] | Activity of inhibiting activated blood coagulation factor X (pIC50) [1]
1 | N=C(N)c1ccc(CCP(=O)(O)O)c(OCCNC(=O)C2CCN(c3ccncc3)CC2)c1 [Compd. of Ex. 1, [2-(4-Amidino-2-[2-[(1-(1-pyridine-4-yl)piperidine-4-carbonyl)amino]ethoxy]phenyl)ethyl]phosphoric acid bistrifluoroacetate] | 0.00316 µM | > 316 µM | <3.5 | 6.8 | 
2 | N=C(N)c1ccc(CCP(=O)(O)O)c(OC[C@H](CCC(=O)O)NC(=O)C2CCN(c3ccncc3)CC2)c1.O=C(O)C(F)(F)F.O=C(O)C(F)(F)F [Compd. of Ex. 4, (4S)-5-(5-amidino-2-(2-phosphorylethyl)phenoxy)-4-((1-(1-pyridine-4-yl)piperidine-4-carbonyl)-amino)pentanoic acid bistrifluoroacetate] |  |  | <4.0 |  | 8.7

More lines, main results first:

Row | IC50 [1] | IC50 [2] | SMILES | Thrombin-inhibiting activity (pIC50) [2] | pPT2 (negative logarithm of the concentration which elongated PT of the control to twice as long) [3] | Activity of inhibiting activated blood coagulation factor X (pIC50) [1]
3 | 0.00251 µM | > 100 µM | CC(=N)N1CCC(Oc2ccc(C(=O)NCCOc3cc(C(=N)N)ccc3CCP(=O)(O)O)cc2)CC1 [Compd. of Ex. 2] |  |  | 
4 | 0.00251 µM | 39.8 µM | N=C(N)c1ccc(CCP(=O)(O)O)c(OCCNC(=O)c2ccc(C(=O)N3CCCC3)cc2)c1 [Compd. of Ex. 3, [2-(4-Amidino-2-[2-[4-(1-pyrrolidinecarbamoyl)benzoylamino]ethoxy]phenyl)ethyl]phosphoric acid mono-trifluoroacetate] |  |  | 
5 | 0.0794 µM | > 100 µM | N/C(=N/O)c1ccc(CCP(=O)(O)O)c(OCCNC(=O)c2ccc(C(=O)N3CCCC3)cc2)c1 [Compd. of Ex. 6, [2-(4-Hydroxylamidino-2-[2-[4-(1-pyrrolidinecarbamoyl)benzoylamino]ethoxy]phenyl)ethyl]phosphoric acid monotrifluoroacetate] |  |  | 
